Experimental findings from patent US20220289686A1, “COMPOSITIONS OF NRF2 INHIBITING AGENTS AND METHODS OF USE THEREOF” (Washington University, priority 2021, published 2022) are described below.

The structures appear in SMILES notation. Entries after “also recorded” stand apart in the source; their conditions may differ. Read-outs that look alike come from different tables or passages of the source.

Experiment [1] has as its system NRF2 activity in H1299-NQO1-YFP cells. Kind of experiment: NRF2 activity reporter IC50 in H1299-NQO1-YFP cells vs NRF2 pathway activators (IncuCyte, YFP/mCherry). It is filed as cell-based. The protocol:
Readings were taken every 2 hours for at least 24 hours. […] Readings were also taken every 2 hours for 96 hours in and IncuCyte S3.
YFP total intensity (correlating to NRF2 activity) was normalized to NLS-mCherry (cell number) total intensity to give a ratio (YFP/mCherry). Ratios at one time point at least 24 hours post compounds were added were used. These numbers were then plotted in Graphpad Prism to calculate IC50s. […] From three biological replicates, percent confluence was used for proliferation assays to calculate IC50s, calculations performed using Graphpad Prism.

The test system of experiment [2] is NRF2 protein. Kind of experiment: Western blot analysis of NRF2 protein abundance and downstream targets in cell lines. It is filed as cell-based. The note with it: for NRF2 protein abundance: western blot, 24-48 hours, PYR 10 μM, analogs 1 μM (104 in HEK293T 10 μM), MTX and PEM 0.1 μM, CG 10 μM. The protocol: Western Blots: KYSE70, HEK293T cells were plated and 24 hours later treated with compounds (see figure legends for details). Either at 24 or 48 hours later, cells were scrapped in RIPA buffer (0.2% deoxycholate, 0.1% SDS, 1% NP40, 150 mM NaCl, 50 mM Tris pH 7.4, 2 mM EDTA) supplemented with protease and phosphatase inhibitors, cleared at 14000×g for 15 minutes at 4° C., and supernatants were quantified by BCA assay (Pierce, 23225). Protein samples (20 μg) were prepared with 1×LDS buffer with 100 mM DTT, ran on NuPAGE 4-12% Bis-tris gels, and transferred onto a […] nitrocellulose membrane (Thermo, 88018). All blots were blocked in 5% milk in TBST for 30 minutes. After incubation of the primary antibody overnight at 4° C. and washed three times with 1×TBST, blots were incubated with LI-COR secondary antibodies for 1-2 hours, washed in 1×TBST thrice, and then imaged via a LI-COR Odyssey instrument (Li-COR, Lincoln, Nebr.).
(In general: A western blot detects proteins with antibodies after separation by electrophoresis.)

Where [3] appears, read: Table 1, activator CDDO 0.1 μM, H1299-NQO1-YFP cells, read-out: CDDO 0.1 μM IC50 μM ± SEM.
[4] abbreviates: Table 1, activator SULF 2 μM, H1299-NQO1-YFP cells, read-out: SULF 2 μM IC50 μM ± SEM.
Setting [5] is: Table 1 and text, average over activators CDDO, PRL295, SULF, H1299-NQO1-YFP cells, read-out: Avg IC50.
The mark [6] stands for this setting: Table 6 NRF2 inhibitors, read-out: Avg IC50.
Where [7] appears, read: read-out: PRL295 5 μM IC50 AM ± SEM, Table 1, activator PRL295 5 μM, H1299-NQO1-YFP cells.

What is called IC50 is the point on the concentration scale where inhibition reaches its midpoint. Turning to `Nc1ncc(-c2ccc(Cl)cc2)c(N)n1` [WCDD103, 5-(4-chlorophenyl)pyrimidine-2,4-diamine], the 50% inhibitory concentration (IC50) in experiment [1] (setting [3]) is 16.9 ± 2.56 µM; in experiment [1] (setting [4]), 12.5 ± 0.798 µM; in experiment [1] (setting [5]), 13.1 µM; in experiment [1] (setting [6]), 13.1 µM; in experiment [1] (setting [7]), 9.99 ± 0.0737 µM.
As to `CCc1nc(N)nc(N)c1-c1cccc(Cl)c1` [WCDD104, 5-(3-chlorophenyl)-6-ethylpyrimidine-2,4-diamine], the 50% inhibitory concentration (IC50) came to 0.103 ± 0.001 µM in experiment [1] (setting [3]); 0.129 ± 0.003 µM in experiment [1] (setting [4]); 0.1 µM in experiment [1] (setting [5]); 0.098 µM in experiment [1] (setting [6]); 0.061 ± 0.003 µM in experiment [1] (setting [7]); 0.1 µM in experiment [1] (unit inferred, read-out: IC50). Besides, the “NRF2 protein on co-treatment with Bortezomib” value in experiment [2] (BORT 0.04 μM co-treatment, HEK293T, H1299) is given as “demonstrated a proteasomal requirement for activity”. Further, in experiment [2], the NRF2 protein abundance entry was “inhibition of NRF2 protein abundance and downstream target gene expression; also recorded: decrease NRF2 protein abundance”.
`CCc1nc(N)nc(N)c1-c1ccc(C(C)(F)F)cc1` [WCDD105, 5-(4-(1,1-difluoroethyl)phenyl)-6-ethylpyrimidine-2,4-diamine]: the concentration for half-maximal inhibition (IC50) in experiment [1] (setting [3]) is 5.12 ± 0.074 µM; in experiment [1] (setting [4]), 3.279 ± 0.006 µM; in experiment [1] (setting [5]), 4.04 µM; in experiment [1] (setting [6]) it was 4.04 µM; in experiment [1] (setting [7]), 3.74 ± 0.499 µM.
As for `CCc1nc(N)nc(N)c1-c1ccc(S(=O)(=O)C2CCCC2)cc1` [WCDD106, 5-(4-(cyclopentylsulfonyl)phenyl)-6-ethylpyrimidine-2,4-diamine], the IC50 in experiment [1] (setting [5]) and in experiment [1] (setting [6]) was over 20 µM throughout.
`CCc1nc(N)nc(N)c1-c1ccc(S(=O)(=O)N2CC3(COC3)C2)cc1` [WCDD107, 5-(4-((2-oxa-6-azaspiro[3.3]heptan-6-yl)sulfonyl)phenyl)-6-ethylpyrimidine-2,4-diamine]: the IC50 in experiment [1] (setting [5]) and in experiment [1] (setting [6]) was over 20 µM in each case.
With `CCc1nc(N)nc(N)c1-c1ccc(S(=O)(=O)C2CC3CC3C2)cc1` (stereo not shown) [WCDD108, 5-(4-(bicyclo[3.1.0]hexan-3-ylsulfonyl)phenyl)-6-ethylpyrimidine-2,4-diamine], the 50% inhibitory concentration (IC50) in experiment [1] (setting [3]) came to 16.9 ± 0.208 µM; in experiment [1] (setting [4]), 12.56 ± 0.103 µM; in experiment [1] (setting [5]) it was 14.9 µM; in experiment [1] (setting [6]), 14.9 µM; in experiment [1] (setting [7]), 15.2 ± 1.29 µM.
Consider `CCc1nc(N)nc(N)c1-c1ccc(N2CC3CC3C2)cc1` (stereo not shown) [WCDD110, 5-(4-(3-azabicyclo[3.1.0]hexan-3-yl)phenyl)-6-ethylpyrimidine-2,4-diamine], for which the IC50 in experiment [1] (setting [5]) and in experiment [1] (setting [6]) was over 20 µM in each case.
For `CCc1nc(N)nc(N)c1-c1ccccc1` [WCDD111, 6-ethyl-5-phenylpyrimidine-2,4-diamine], the half-maximal inhibitory concentration (IC50) is 1.1 ± 0.016 µM in experiment [1] (setting [3]); 0.91 ± 0.01 µM in experiment [1] (setting [4]); 1.18 µM in experiment [1] (setting [5]); 1.18 µM in experiment [1] (setting [6]); 1.51 ± 0.0329 µM in experiment [1] (setting [7]).
Turning to `CCC1=NC(N)=NC(=O)C1c1ccc(Cl)cc1` (stereo not shown) [WCDD112, 2-amino-5-(4-chlorophenyl)-6-ethylpyrimidin-4(5H)-one], the half-inhibitory concentration (IC50) in experiment [1] (setting [3]) came out at 19.8 ± 0.338 µM; in experiment [1] (setting [4]), 10.92 ± 0.0655 µM; in experiment [1] (setting [5]), 13.9 µM; in experiment [1] (setting [6]), 13.9 µM; in experiment [1] (setting [7]), 10.8 ± 0.62 µM.
As for `CCc1nc(N)nc(N)c1-c1cc(Cl)cc(Cl)c1` [WCDD114, 5-(3,5-dichlorophenyl)-6-ethylpyrimidine-2,4-diamine], the IC50 was 0.134 ± 0.014 µM in experiment [1] (setting [3]); 0.111 ± 0.009 µM in experiment [1] (setting [4]); 0.1 µM in experiment [1] (setting [5]); 0.108 µM in experiment [1] (setting [6]); 0.079 ± 0.002 µM in experiment [1] (setting [7]); 0.1 µM in experiment [1] (unit inferred, read-out: IC50). Also, the NRF2 protein abundance entry in experiment [2] is given as “decrease NRF2 protein abundance”.
Regarding `CCc1nc(N)nc(N)c1-c1ccc2c(c1)CCC2` [WCDD119, 5-(2,3-dihydro-1H-inden-5-yl)-6-ethylpyrimidine-2,4-diamine], the IC50 in experiment [1] (setting [3]) worked out at 0.614 ± 0.021 µM; in experiment [1] (setting [4]), 0.557 ± 0.03 µM; in experiment [1] (setting [5]), 0.5 µM; in experiment [1] (setting [6]), 0.57 µM; in experiment [1] (setting [7]), 0.552 ± 0.003 µM.
In the case of `CCc1nc(N)nc(N)c1-c1cc(Cl)ccc1Cl` [WCDD120, 5-(2,5-dichlorophenyl)-6-ethylpyrimidine-2,4-diamine], the IC50 in experiment [1] (setting [5]) and in experiment [1] (setting [6]) was over 10 µM each time.
As for `CCc1nc(N)nc(N)c1-c1cccc(Cl)c1F` [WCDD121, 5-(3-chloro-2-fluorophenyl)-6-ethylpyrimidine-2,4-diamine], the IC50 in experiment [1] (setting [5]) and in experiment [1] (setting [6]) was over 5 µM in each case.
In the case of `CCc1nc(N)nc(N)c1-c1cccc(N2CCCC2)c1` [WCDD122, 6-ethyl-5-(3-(pyrrolidin-1-yl)phenyl)pyrimidine-2,4-diamine], the concentration for half-maximal inhibition (IC50) in experiment [1] (setting [5]) and in experiment [1] (setting [6]) was over 5 µM each time.
Regarding `CCc1ncnc(N)c1-c1cccc(Cl)c1` [WCDD125, 5-(3-chlorophenyl)-6-ethylpyrimidin-4-amine], the IC50 in experiment [1] (setting [5]) and in experiment [1] (setting [6]) was over 20 µM each time.
For `COCCOCCc1nc(N)nc(N)c1-c1cccc(Cl)c1` [WCDD126, 5-(3-chlorophenyl)-6-(2-(2-methoxyethoxy)ethyl)pyrimidine-2,4-diamine], the IC50 came out at 0.461 ± 0.017 µM in experiment [1] (setting [3]); 0.397 ± 0.011 µM in experiment [1] (setting [4]); 0.514 µM in experiment [1] (setting [5]); 0.514 µM in experiment [1] (setting [6]); 0.683 ± 0.002 µM in experiment [1] (setting [7]).
Turning to `Nc1nc(N)c(-c2cccc(Cl)c2)c(CC2CCC2)n1` [WCDD127, 5-(3-chlorophenyl)-6-(cyclobutylmethyl)pyrimidine-2,4-diamine], the 50% inhibitory concentration (IC50) worked out at 0.469 ± 0.002 µM in experiment [1] (setting [3]); 0.454 ± 0.006 µM in experiment [1] (setting [4]); 0.456 µM in experiment [1] (setting [5]); 0.456 µM in experiment [1] (setting [6]); 0.444 ± 0.002 µM in experiment [1] (setting [7]).
For `C#CCCCc1nc(N)nc(N)c1-c1cccc(Cl)c1` [WCDD128, 5-(3-chlorophenyl)-6-(pent-4-yn-1-yl)pyrirnidine-2,4-diamine], the concentration for half-maximal inhibition (IC50) in experiment [1] (setting [3]) was determined as 0.244 ± 0.006 µM; in experiment [1] (setting [4]), 0.163 ± 0.002 µM; in experiment [1] (setting [5]) it was 0.248 µM; in experiment [1] (setting [6]), 0.248 µM; in experiment [1] (setting [7]) it was 0.334 ± 0.004 µM.
Take `CCc1nc(NC)nc(NC)c1-c1ccc(Cl)cc1` [WCDD133, 5-(4-chlorophenyl)-6-ethyl-N2,N4-dimethylpyrimidine-2,4-diamine]: in experiment [1] (setting [5]), the 50% inhibitory concentration (IC50) was over 20 µM.
For `CCc1nc(N)nc(NC)c1-c1ccc(Cl)cc1` [WCDD133a, 5-(4-chlorophenyl)-6-ethyl-N4-methylpyrimidine-2,4-diamine], the 50% inhibitory concentration (IC50) in experiment [1] (setting [5]) was over 20 µM.
With `Nc1ncc(-c2cccc(Cl)c2)c(N)n1` [WCDD134, 5-(3-chlorophenyl)pyrimidine-2,4-diamine], the IC50 worked out at 1.84 ± 0.196 µM in experiment [1] (setting [3]); 1.88 ± 0.024 µM in experiment [1] (setting [4]); 1.43 µM in experiment [1] (setting [5]); 1.43 µM in experiment [1] (setting [6]); 1.84 ± 0.196 µM in experiment [1] (setting [7]).
For `NCCCc1nc(N)nc(N)c1-c1cccc(C(F)(F)F)c1` [WCDD135, 6-(3-aminopropyl)-5-(3-(trifluoromethyl)phenyl)pyrimidine-2,4-diamine], in experiment [1] (setting [5]), the 50% inhibitory concentration (IC50) is over 20 µM.
With `C#CCCC1(CCC(=O)NCCCc2nc(N)nc(N)c2-c2cccc(C(F)(F)F)c2)N=N1` [WCDD136, 3-(3-(but-3-yn-1-yl)-3H-diazirin-3-yl)-N-(3-(2,6-diamino-5-(3-(trifluoromethyl)phenyl)pyrimidin-4-yl)propyl)propanamide], the figures for the IC50 in experiment [1] (setting [5]) and in experiment [1] (setting [7]) were about 0.15 µM and 0.153 ± 0.002 µM, respectively.
In the same order, the values of `Nc1nc(N)c(-c2cccc(C(F)(F)F)c2)c(CCCNC(=O)CCCC[C@H]2SCC3NC(O)NC32)n1` (stereo partly drawn) [WCDD137, N-(3-(2,6-diamino-5-(3-(trifluoromethyl)phenyl)pyrimidin-4-yl)propyl)-5-((4R)-2-hydroxyhexahydro-1H-thieno[3,4-d]imidazol-4-yl)pentanamide] are 4.84 µM and 4.84 ± 0.284 µM.
As for `C=CCCc1nc(N)nc(N)c1-c1cccc(C(F)(F)F)c1` [WCDD139, 6-(but-3-en-1-yl)-5-(3-(trifluoromethyl)phenyl)pyrimidine-2,4-diamine], the IC50 in experiment [1] (setting [3]) is 0.206 ± 0.0014 µM; in experiment [1] (setting [4]) it was 0.097 ± 0.003 µM; in experiment [1] (setting [5]) it was 0.14 µM; in experiment [1] (setting [6]) it was 0.14 µM; in experiment [1] (setting [7]), 0.106 ± 0.003 µM.
